From patent US10376520B2, “Methods for the treatment of cardiovascular disorders” (Galapagos NV, priority 2015, dated 2019)

Test system: RA patients
Test: Total cholesterol determination, Study 1 (RA patients with inadequate response to methotrexate, add-on to MTX)
Type: in vivo, human
Conditions: for [Total cholesterol] Median CFB / [total cholesterol] Mean CFB: Study 1 12 weeks results
Experimental: Double-blind, placebo-controlled add on study in subjects with moderately to severely active RA who have an inadequate response to methotrexate (MTX) (oral or parenteral).
595 subjects randomized to one of 6 dose regimens of Compound 1 (dosed as a [Compound 1:HCl:3H2O]) (3 dose levels administered either once or twice daily) or placebo on top of each subject's stable dose of MTX.
Compound 1 (dosed as a [Compound 1:HCl:3H2O]) is dosed for twelve weeks once daily (q.d.) (50 mg, 100 mg or 200 mg) or twice daily (b.i.d.) (25 mg, 50 mg or 100 mg); or placebo.
At Week 12, the subjects on placebo who have not achieved 20% improvement in swollen joint count (SJC66) and tender joint count (TJC68) are re-randomized automatically to receive Compound 1 (dosed as a [Compound 1:HCl:3H2O]) either at 100 mg q.d. or 50 mg b.i.d. doses in a blinded fashion; subjects on 50 mg q.d. who have not achieved 20% improvement in SJC66 and TJC68 will be assigned to 100 mg q.d. and subjects on 25 mg b.i.d. that have not achieved a 20% improvement in SJC66 and TJC68 will be assigned to 50 mg b.i.d. Subjects who switch treatment at week 12 are handled as if they discontinued at week 12 for the purpose of statistical analysis, whereas subjects in the other groups will maintain their randomized treatment until Week 24.
This method is based on the determination of Δ^4 cholestenone after enzymatic cleavage of the cholesterol ester by cholesterol esterase, conversion of cholesterol by cholesterol oxidase, and subsequent measurement by the Trinder reaction of the hydrogen peroxide formed (Allain et al., 1974).
Cholesterol esters are cleaved by the action of cholesterol esterase to yield free cholesterol and fatty acids. Cholesterol oxidase then catalyzes the oxidation of cholesterol to cholest-4-en-3-one and hydrogen peroxide. In the presence of peroxidase, the hydrogen peroxide formed effects the oxidative coupling of phenol and 4-aminophenazone to form a red quinone-imine dye. The color intensity of the dye formed is directly proportional to the cholesterol concentration. It is determined by measuring the increase in absorbance.
Human serum and plasma samples cholesterol determination was done on a Roche/Hitachi Cobas c 701/702 system which automatically calculate the analyte concentration of each sample.

## O=C(Nc1nc2cccc(-c3ccc(CN4CCS(=O)(=O)CC4)cc3)n2n1)C1CC1 [Compound 1, cyclopropanecarboxylic acid {5-[4-(1,1-dioxo-thiomorpholin-4-ylmethyl)-phenyl]-[1,2,4]triazolo[1,5-a]pyridin-2yl}-amide]
50 mg q.d. (N = 82), week 1
  [total cholesterol] Mean percentage CFB - 12 weeks results: 1%
50 mg q.d. (N = 82), week 2
  [total cholesterol] Mean percentage CFB - 12 weeks results: 1%
50 mg q.d. (N = 82), week 4
  [total cholesterol] Mean percentage CFB - 12 weeks results: 1%
50 mg q.d. (N = 82), week 8
  [total cholesterol] Mean percentage CFB - 12 weeks results: 3%
50 mg q.d. (N = 82), week 12
  [total cholesterol] Mean percentage CFB - 12 weeks results: 5%
100 mg q.d. (N = 85), week 1
  [total cholesterol] Mean percentage CFB - 12 weeks results: 4%
100 mg q.d. (N = 85), week 2
  [total cholesterol] Mean percentage CFB - 12 weeks results: 2%
100 mg q.d. (N = 85), week 4
  [total cholesterol] Mean percentage CFB - 12 weeks results: 5%
100 mg q.d. (N = 85), week 8
  [total cholesterol] Mean percentage CFB - 12 weeks results: 4%
100 mg q.d. (N = 85), week 12
  [total cholesterol] Mean percentage CFB - 12 weeks results: 5%
200 mg q.d. (N = 86), week 1
  [total cholesterol] Mean percentage CFB - 12 weeks results: 6%
200 mg q.d. (N = 86), week 2
  [total cholesterol] Mean percentage CFB - 12 weeks results: 7%
200 mg q.d. (N = 86), week 4
  [total cholesterol] Mean percentage CFB - 12 weeks results: 8%
200 mg q.d. (N = 86), week 8
  [total cholesterol] Mean percentage CFB - 12 weeks results: 10%
200 mg q.d. (N = 86), week 12
  [total cholesterol] Mean percentage CFB - 12 weeks results: 10%
2 x 25 mg b.i.d. (N = 86), week 1
  [total cholesterol] Mean percentage CFB - 12 weeks results: 2%
2 x 25 mg b.i.d. (N = 86), week 2
  [total cholesterol] Mean percentage CFB - 12 weeks results: 3%
2 x 25 mg b.i.d. (N = 86), week 4
  [total cholesterol] Mean percentage CFB - 12 weeks results: 3%
2 x 25 mg b.i.d. (N = 86), week 8
  [total cholesterol] Mean percentage CFB - 12 weeks results: 3%
2 x 25 mg b.i.d. (N = 86), week 12
  [total cholesterol] Mean percentage CFB - 12 weeks results: 5%
2 x 50 mg b.i.d. (N = 85), week 1
  [total cholesterol] Mean percentage CFB - 12 weeks results: 3%
2 x 50 mg b.i.d. (N = 85), week 2
  [total cholesterol] Mean percentage CFB - 12 weeks results: 4%
2 x 50 mg b.i.d. (N = 85), week 4
  [total cholesterol] Mean percentage CFB - 12 weeks results: 7%
2 x 50 mg b.i.d. (N = 85), week 8
  [total cholesterol] Mean percentage CFB - 12 weeks results: 6%
2 x 50 mg b.i.d. (N = 85), week 12
  [total cholesterol] Mean percentage CFB - 12 weeks results: 6%
2 x 100 mg b.i.d. (N = 84), week 1
  [total cholesterol] Mean percentage CFB - 12 weeks results: 7%
2 x 100 mg b.i.d. (N = 84), week 2
  [total cholesterol] Mean percentage CFB - 12 weeks results: 8%
2 x 100 mg b.i.d. (N = 84), week 4
  [total cholesterol] Mean percentage CFB - 12 weeks results: 10%
2 x 100 mg b.i.d. (N = 84), week 8
  [total cholesterol] Mean percentage CFB - 12 weeks results: 15%
2 x 100 mg b.i.d. (N = 84), week 12
  [total cholesterol] Mean percentage CFB - 12 weeks results: 15%
50 mg q.d., week 1
  [Total cholesterol] Median CFB: 0.05 mmol/L
  [total cholesterol] Mean CFB: 0.0 mmol/L
50 mg q.d., week 2
  [Total cholesterol] Median CFB: 0.04 mmol/L
  [total cholesterol] Mean CFB: 0.1 mmol/L
50 mg q.d., week 4
  [Total cholesterol] Median CFB: 0.06 mmol/L
  [total cholesterol] Mean CFB: 0.1 mmol/L
50 mg q.d., week 8
  [Total cholesterol] Median CFB: 0.16 mmol/L
  [total cholesterol] Mean CFB: 0.1 mmol/L
50 mg q.d., week 12
  [Total cholesterol] Median CFB: 0.20 mmol/L
  [total cholesterol] Mean CFB: 0.2 mmol/L
100 mg q.d., week 1
  [Total cholesterol] Median CFB: 0.14 mmol/L
  [total cholesterol] Mean CFB: 0.2 mmol/L
100 mg q.d., week 2
  [Total cholesterol] Median CFB: 0.07 mmol/L
  [total cholesterol] Mean CFB: 0.1 mmol/L
100 mg q.d., week 4
  [Total cholesterol] Median CFB: 0.25 mmol/L
  [total cholesterol] Mean CFB: 0.2 mmol/L
100 mg q.d., week 8
  [Total cholesterol] Median CFB: 0.09 mmol/L
  [total cholesterol] Mean CFB: 0.1 mmol/L
100 mg q.d., week 12
  [Total cholesterol] Median CFB: 0.30 mmol/L
  [total cholesterol] Mean CFB: 0.2 mmol/L
200 mg q.d., week 1
  [Total cholesterol] Median CFB: 0.25 mmol/L
  [total cholesterol] Mean CFB: 0.3 mmol/L
200 mg q.d., week 2
  [Total cholesterol] Median CFB: 0.34 mmol/L
  [total cholesterol] Mean CFB: 0.3 mmol/L
200 mg q.d., week 4
  [Total cholesterol] Median CFB: 0.33 mmol/L
  [total cholesterol] Mean CFB: 0.4 mmol/L
200 mg q.d., week 8
  [Total cholesterol] Median CFB: 0.54 mmol/L
  [total cholesterol] Mean CFB: 0.4 mmol/L
200 mg q.d., week 12
  [Total cholesterol] Median CFB: 0.26 mmol/L
  [total cholesterol] Mean CFB: 0.5 mmol/L
2 x 25 mg b.i.d., week 1
  [Total cholesterol] Median CFB: 0.12 mmol/L
